Converted amounts (≈) assume the structure as drawn. Numbered stars: 1 amine (or outer) side, 2 acyl side, 3 side chain; on linkers, the order of the positions; unused ones are H or OH. Bridge positions count the residues as written; N and C are the ends. Square brackets hold non-standard residues; d marks the D form. Peptide text beside a SMILES is read from it. * marks the point of attachment. Orn(4R-OH,5R-OH) = O=C([C@H](C[C@@H](O)[C@@H](O)N[*:3])N[*:1])[*:2]; hTyr(3S-OH,4S-OH) = N[C@H](C(=O)O)[C@H](O)[C@@H](O)c1ccc(O)cc1; X16 = COC(=O)CCCCCNC(=O)C[C@@H](O)[C@H](N[*:1])C(=O)[*:2]; X8 = O=C(O)CCCCCNC(=O)C[C@@H](O)[C@H](N[*:1])C(=O)[*:2]; Orn(4R-OH) = O=C([C@H](C[C@@H](O)CN[*:3])N[*:1])[*:2]; X15 = NCCCCCCNC(=O)C[C@@H](O)[C@H](N[*:1])C(=O)[*:2]; X6 = C[N+](C)(C)CC[C@@H](O)[C@H](N[*:1])C(=O)[*:2]; hTyr(3R-OH) = N[C@H](C(=O)O)[C@H](O)Cc1ccc(O)cc1; X11 = COC(=O)C[C@@H](O)[C@H](N[*:1])C(=O)[*:2]; X14 = NNC(=O)C[C@@H](O)[C@H](N[*:1])C(=O)[*:2]; X5 = NC(N)=NCC[C@@H](O)[C@H](N[*:1])C(=O)[*:2]; X3 = O=C(C[C@@H](O)[C@H](N[*:1])C(=O)[*:2])NO; X2 = O=C(O)C[C@@H](O)[C@H](N[*:1])C(=O)[*:2]; X4 = N=C(S)C[C@@H](O)[C@H](N[*:1])C(=O)[*:2]; X7 = CN(C)CC[C@@H](O)[C@H](N[*:1])C(=O)[*:2]; Gln(3R-OH) = NC(=O)C[C@@H](O)[C@H](N)C(=O)O; X17 = O=C([C@@H](N[*:1])[C@H](O)CCO)[*:2]; X9 = N#CC[C@@H](O)[C@H](N[*:1])C(=O)[*:2]; Orn(3R-OH) = NCC[C@@H](O)[C@H](N)C(=O)O; Pro(3S-OH) = O=C(O)[C@H]1NCC[C@@H]1O; Hyp = O=C(O)[C@@H]1C[C@@H](O)CN1; X1 = CCC(C)CC(C)CCCCCCCCC(=O)*
Legend:
Beta-1,3-glucan synthase = Beta-1,3-glucan synthase (Candida albicans, UniProt O13428); assay: Tested for inhibition of Beta-1,3-glucan synthase using a crude membrane of Candida albicans (MY 1208).
Beta-1,3-glucan synthase, sequence (O13428 whole entry): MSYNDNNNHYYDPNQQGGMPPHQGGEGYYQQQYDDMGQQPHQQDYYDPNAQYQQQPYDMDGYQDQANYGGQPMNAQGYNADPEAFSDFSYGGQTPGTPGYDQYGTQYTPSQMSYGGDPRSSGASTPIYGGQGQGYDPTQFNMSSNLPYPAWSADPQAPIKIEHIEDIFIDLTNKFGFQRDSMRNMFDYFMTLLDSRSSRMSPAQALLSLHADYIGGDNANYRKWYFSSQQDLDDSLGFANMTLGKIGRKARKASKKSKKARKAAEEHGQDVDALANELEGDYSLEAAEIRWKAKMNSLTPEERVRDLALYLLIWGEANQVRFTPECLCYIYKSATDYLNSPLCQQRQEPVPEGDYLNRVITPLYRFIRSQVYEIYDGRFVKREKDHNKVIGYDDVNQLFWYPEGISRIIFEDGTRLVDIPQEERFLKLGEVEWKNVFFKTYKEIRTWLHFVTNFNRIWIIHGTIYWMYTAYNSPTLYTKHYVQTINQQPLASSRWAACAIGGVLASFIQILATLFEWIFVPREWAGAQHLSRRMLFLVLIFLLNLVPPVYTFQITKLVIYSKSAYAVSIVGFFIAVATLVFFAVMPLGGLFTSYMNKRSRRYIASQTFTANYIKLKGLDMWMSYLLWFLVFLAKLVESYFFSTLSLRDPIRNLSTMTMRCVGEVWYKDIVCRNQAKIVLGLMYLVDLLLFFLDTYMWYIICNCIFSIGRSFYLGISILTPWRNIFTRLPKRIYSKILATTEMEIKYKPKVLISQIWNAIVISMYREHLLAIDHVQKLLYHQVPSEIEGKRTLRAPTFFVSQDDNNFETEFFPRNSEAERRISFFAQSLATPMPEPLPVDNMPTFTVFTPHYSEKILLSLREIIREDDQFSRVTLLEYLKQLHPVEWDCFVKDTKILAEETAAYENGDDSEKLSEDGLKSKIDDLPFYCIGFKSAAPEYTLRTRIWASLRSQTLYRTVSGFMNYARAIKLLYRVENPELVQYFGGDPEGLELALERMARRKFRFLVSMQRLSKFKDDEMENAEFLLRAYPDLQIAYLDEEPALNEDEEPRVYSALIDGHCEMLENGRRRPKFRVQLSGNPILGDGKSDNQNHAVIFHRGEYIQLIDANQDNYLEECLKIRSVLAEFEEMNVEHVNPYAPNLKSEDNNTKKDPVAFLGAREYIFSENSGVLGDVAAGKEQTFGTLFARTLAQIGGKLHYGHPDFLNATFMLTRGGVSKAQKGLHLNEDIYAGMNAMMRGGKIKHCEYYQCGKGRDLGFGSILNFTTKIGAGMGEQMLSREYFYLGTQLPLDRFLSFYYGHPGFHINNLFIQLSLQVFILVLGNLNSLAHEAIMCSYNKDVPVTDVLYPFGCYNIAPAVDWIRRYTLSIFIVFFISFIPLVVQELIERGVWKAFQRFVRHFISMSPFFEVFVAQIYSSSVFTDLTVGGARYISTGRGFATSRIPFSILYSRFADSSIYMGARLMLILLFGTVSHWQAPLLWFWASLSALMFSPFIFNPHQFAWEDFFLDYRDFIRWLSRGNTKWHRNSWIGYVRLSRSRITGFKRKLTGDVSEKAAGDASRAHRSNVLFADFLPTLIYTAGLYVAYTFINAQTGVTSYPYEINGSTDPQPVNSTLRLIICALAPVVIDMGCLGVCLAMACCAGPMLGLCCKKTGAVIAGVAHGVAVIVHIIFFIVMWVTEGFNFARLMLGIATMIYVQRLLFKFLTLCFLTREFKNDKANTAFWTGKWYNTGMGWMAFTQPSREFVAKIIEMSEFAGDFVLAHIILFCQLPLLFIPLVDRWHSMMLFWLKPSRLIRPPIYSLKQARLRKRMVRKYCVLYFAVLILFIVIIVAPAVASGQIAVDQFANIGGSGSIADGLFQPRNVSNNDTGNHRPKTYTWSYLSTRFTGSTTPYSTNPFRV

Candida albicans = assay: In vitro Fungicidal activity (MFC) against Candida albicans (MY 1055).; assay type: functional
[1] = In vivo anti-Candida activity was determined in a mouse model of disseminated candidiasis (TOKA).; assay type: functional
Candida parapsilosis = assay: In vitro Fungicidal activity (MFC) against Candida parapsilosis (MY 1010).; assay type: functional; details: Lodderomyces parapsilosis

Compound | IC50 (Beta-1,3-glucan synthase) | MFC (Candida albicans) | ED99.9 [1] | MFC (Candida parapsilosis)
CCC(C)CC(C)CCCCCCCCC(=O)N[C@H]1C[C@@H](O)CNC(=O)[C@@H]2[C@@H](O)CCN2C(=O)[C@H]([C@H](O)CC(N)=O)NC(=O)[C@H]([C@H](O)Cc2ccc(O)cc2)NC(=O)[C@@H]2C[C@@H](O)CN2C(=O)[C@H]([C@@H](C)O)NC1=O (stereo partly drawn) (X1-[Orn(4R-OH)]T[Hyp][hTyr(3R-OH)][Gln(3R-OH)][Pro(3S-OH)]; lactam 1-C) | 70 nM | 0.25 µg/mL (≈ 0.242 µM) | >6 mg/kg | 2 µg/mL (≈ 1.94 µM)
CCC(C)CC(C)CCCCCCCCC(=O)N[C@H]1C[C@@H](O)CNC(=O)[C@@H]2[C@@H](O)CCN2C(=O)[C@H]([C@H](O)CCN)NC(=O)[C@H]([C@H](O)Cc2ccc(O)cc2)NC(=O)[C@@H]2C[C@@H](O)CN2C(=O)[C@H]([C@@H](C)O)NC1=O (stereo partly drawn) (X1-[Orn(4R-OH)]T[Hyp][hTyr(3R-OH)][Orn(3R-OH)][Pro(3S-OH)]; lactam 1-C) | 10 nM | 0.125 µg/mL (≈ 0.123 µM) | 1.5 mg/kg | 
CCC(C)CC(C)CCCCCCCCC(=O)N[C@H]1C[C@@H](O)CNC(=O)[C@@H]2[C@@H](O)CCN2C(=O)[C@H]([C@H](O)CC(=O)O)NC(=O)[C@H]([C@H](O)Cc2ccc(O)cc2)NC(=O)[C@@H]2C[C@@H](O)CN2C(=O)[C@H]([C@@H](C)O)NC1=O (stereo partly drawn) (X1-[Orn(4R-OH)]T[Hyp][hTyr(3R-OH)][X2][Pro(3S-OH)]; lactam 1-C) | 400 nM | 0.25 µg/mL (≈ 0.242 µM) | >6 mg/kg | 8 µg/mL (≈ 7.74 µM)
CCC(C)CC(C)CCCCCCCCC(=O)N[C@H]1C[C@@H](O)CNC(=O)[C@@H]2[C@@H](O)CCN2C(=O)[C@H]([C@H](O)CC(=O)NO)NC(=O)[C@H]([C@H](O)Cc2ccc(O)cc2)NC(=O)[C@@H]2C[C@@H](O)CN2C(=O)[C@H]([C@@H](C)O)NC1=O (stereo partly drawn) (X1-[Orn(4R-OH)]T[Hyp][hTyr(3R-OH)][X3][Pro(3S-OH)]; lactam 1-C) | 80 nM | 0.25 µg/mL (≈ 0.238 µM) | 6 mg/kg | 4 µg/mL (≈ 3.81 µM)
CCC(C)CC(C)CCCCCCCCC(=O)N[C@H]1C[C@@H](O)CNC(=O)[C@@H]2[C@@H](O)CCN2C(=O)[C@H]([C@H](O)CC(=N)S)NC(=O)[C@H]([C@H](O)Cc2ccc(O)cc2)NC(=O)[C@@H]2C[C@@H](O)CN2C(=O)[C@H]([C@@H](C)O)NC1=O (stereo partly drawn) (X1-[Orn(4R-OH)]T[Hyp][hTyr(3R-OH)][X4][Pro(3S-OH)]; lactam 1-C) | 120 nM | 0.25 µg/mL (≈ 0.238 µM) | >6 mg/kg | 4 µg/mL (≈ 3.81 µM)
CCC(C)CC(C)CCCCCCCCC(=O)N[C@H]1C[C@@H](O)CNC(=O)[C@@H]2[C@@H](O)CCN2C(=O)[C@H]([C@H](O)CC(=O)NCCCCCC(=O)O)NC(=O)[C@H]([C@H](O)Cc2ccc(O)cc2)NC(=O)[C@@H]2C[C@@H](O)CN2C(=O)[C@H]([C@@H](C)O)NC1=O (stereo partly drawn) (X1-[Orn(4R-OH)]T[Hyp][hTyr(3R-OH)][X8][Pro(3S-OH)]; lactam 1-C) | 900 nM | 2 µg/mL (≈ 1.74 µM) |  | 64 µg/mL (≈ 55.8 µM)
CCC(C)CC(C)CCCCCCCCC(=O)N[C@H]1C[C@@H](O)CNC(=O)[C@@H]2[C@@H](O)CCN2C(=O)[C@H]([C@H](O)CC#N)NC(=O)[C@H]([C@H](O)Cc2ccc(O)cc2)NC(=O)[C@@H]2C[C@@H](O)CN2C(=O)[C@H]([C@@H](C)O)NC1=O (stereo partly drawn) (X1-[Orn(4R-OH)]T[Hyp][hTyr(3R-OH)][X9][Pro(3S-OH)]; lactam 1-C) | 100 nM | 1 µg/mL (≈ 0.985 µM) |  | 4 µg/mL (≈ 3.94 µM)
CCC(C)CC(C)CCCCCCCCC(=O)N[C@H]1C[C@@H](O)CNC(=O)[C@@H]2[C@@H](O)CCN2C(=O)[C@H]([C@H](O)CC(=O)OC)NC(=O)[C@H]([C@H](O)Cc2ccc(O)cc2)NC(=O)[C@@H]2C[C@@H](O)CN2C(=O)[C@H]([C@@H](C)O)NC1=O (stereo partly drawn) (X1-[Orn(4R-OH)]T[Hyp][hTyr(3R-OH)][X11][Pro(3S-OH)]; lactam 1-C) | 180 nM | 0.5 µg/mL (≈ 0.477 µM) | >6 mg/kg | 4 µg/mL (≈ 3.82 µM)
CCC(C)CC(C)CCCCCCCCC(=O)N[C@H]1C[C@@H](O)CNC(=O)[C@@H]2[C@@H](O)CCN2C(=O)[C@H]([C@H](O)CC(=O)NN)NC(=O)[C@H]([C@H](O)Cc2ccc(O)cc2)NC(=O)[C@@H]2C[C@@H](O)CN2C(=O)[C@H]([C@@H](C)O)NC1=O (stereo partly drawn) (X1-[Orn(4R-OH)]T[Hyp][hTyr(3R-OH)][X14][Pro(3S-OH)]; lactam 1-C) | 110 nM | 4 µg/mL (≈ 3.82 µM) |  | 8 µg/mL (≈ 7.63 µM)
CCC(C)CC(C)CCCCCCCCC(=O)N[C@H]1C[C@@H](O)CNC(=O)[C@@H]2[C@@H](O)CCN2C(=O)[C@H]([C@H](O)CC(=O)NCCCCCCN)NC(=O)[C@H]([C@H](O)Cc2ccc(O)cc2)NC(=O)[C@@H]2C[C@@H](O)CN2C(=O)[C@H]([C@@H](C)O)NC1=O (stereo partly drawn) (X1-[Orn(4R-OH)]T[Hyp][hTyr(3R-OH)][X15][Pro(3S-OH)]; lactam 1-C) | 38 nM | 0.5 µg/mL (≈ 0.442 µM) | >6 mg/kg | 
CCC(C)CC(C)CCCCCCCCC(=O)N[C@H]1C[C@@H](O)CNC(=O)[C@@H]2[C@@H](O)CCN2C(=O)[C@H]([C@H](O)CC(=O)NCCCCCC(=O)OC)NC(=O)[C@H]([C@H](O)Cc2ccc(O)cc2)NC(=O)[C@@H]2C[C@@H](O)CN2C(=O)[C@H]([C@@H](C)O)NC1=O (stereo partly drawn) (X1-[Orn(4R-OH)]T[Hyp][hTyr(3R-OH)][X16][Pro(3S-OH)]; lactam 1-C) | 250 nM | 4 µg/mL (≈ 3.44 µM) |  | > 128 µg/mL
CCC(C)CC(C)CCCCCCCCC(=O)N[C@H]1C[C@@H](O)CNC(=O)[C@@H]2[C@@H](O)CCN2C(=O)[C@H]([C@H](O)CCO)NC(=O)[C@H]([C@H](O)Cc2ccc(O)cc2)NC(=O)[C@@H]2C[C@@H](O)CN2C(=O)[C@H]([C@@H](C)O)NC1=O (stereo partly drawn) (X1-[Orn(4R-OH)]T[Hyp][hTyr(3R-OH)][X17][Pro(3S-OH)]; lactam 1-C) | 200 nM | 1 µg/mL (≈ 0.98 µM) |  | 8 µg/mL (≈ 7.84 µM)
CCC(C)CC(C)CCCCCCCCC(=O)N[C@H]1C[C@@H](O)[C@@H](O)NC(=O)[C@@H]2[C@@H](O)CCN2C(=O)[C@H]([C@H](O)CC(N)=O)NC(=O)[C@H]([C@H](O)[C@@H](O)c2ccc(O)cc2)NC(=O)[C@@H]2C[C@@H](O)CN2C(=O)[C@H]([C@@H](C)O)NC1=O (stereo partly drawn) (X1-[Orn(4R-OH,5R-OH)]T[Hyp][hTyr(3S-OH,4S-OH)][Gln(3R-OH)][Pro(3S-OH)]; lactam 1-C) |  | 0.25 µg/mL (≈ 0.235 µM) | 6 mg/kg | 1 µg/mL (≈ 0.939 µM)
CCC(C)CC(C)CCCCCCCCC(=O)N[C@H]1C[C@@H](O)[C@@H](O)NC(=O)[C@@H]2[C@@H](O)CCN2C(=O)[C@H]([C@H](O)CCN)NC(=O)[C@H]([C@H](O)[C@@H](O)c2ccc(O)cc2)NC(=O)[C@@H]2C[C@@H](O)CN2C(=O)[C@H]([C@@H](C)O)NC1=O (stereo partly drawn) (X1-[Orn(4R-OH,5R-OH)]T[Hyp][hTyr(3S-OH,4S-OH)][Orn(3R-OH)][Pro(3S-OH)]; lactam 1-C) | 10 nM | < 0.06 µg/mL | 0.375 mg/kg | 0.5 µg/mL (≈ 0.476 µM)
CCC(C)CC(C)CCCCCCCCC(=O)N[C@H]1C[C@@H](O)[C@@H](O)NC(=O)[C@@H]2[C@@H](O)CCN2C(=O)[C@H]([C@H](O)CCN=C(N)N)NC(=O)[C@H]([C@H](O)[C@@H](O)c2ccc(O)cc2)NC(=O)[C@@H]2C[C@@H](O)CN2C(=O)[C@H]([C@@H](C)O)NC1=O (stereo partly drawn) (X1-[Orn(4R-OH,5R-OH)]T[Hyp][hTyr(3S-OH,4S-OH)][X5][Pro(3S-OH)]; lactam 1-C) | 7 nM | < 0.06 µg/mL | 1.5 mg/kg | 0.5 µg/mL (≈ 0.457 µM)
CCC(C)CC(C)CCCCCCCCC(=O)N[C@H]1C[C@@H](O)[C@@H](O)NC(=O)[C@@H]2[C@@H](O)CCN2C(=O)[C@H]([C@H](O)CC[N+](C)(C)C)NC(=O)[C@H]([C@H](O)[C@@H](O)c2ccc(O)cc2)NC(=O)[C@@H]2C[C@@H](O)CN2C(=O)[C@H]([C@@H](C)O)NC1=O (stereo partly drawn) (X1-[Orn(4R-OH,5R-OH)]T[Hyp][hTyr(3S-OH,4S-OH)][X6][Pro(3S-OH)]; lactam 1-C) | 9 nM | 0.125 µg/mL | 0.375 mg/kg | 0.5 µg/mL
CCC(C)CC(C)CCCCCCCCC(=O)N[C@H]1C[C@@H](O)[C@@H](O)NC(=O)[C@@H]2[C@@H](O)CCN2C(=O)[C@H]([C@H](O)CCN(C)C)NC(=O)[C@H]([C@H](O)[C@@H](O)c2ccc(O)cc2)NC(=O)[C@@H]2C[C@@H](O)CN2C(=O)[C@H]([C@@H](C)O)NC1=O (stereo partly drawn) (X1-[Orn(4R-OH,5R-OH)]T[Hyp][hTyr(3S-OH,4S-OH)][X7][Pro(3S-OH)]; lactam 1-C) | 5 nM | 1 µg/mL (≈ 0.927 µM) | 1.5 mg/kg | 2 µg/mL (≈ 1.85 µM)
CCC(C)CC(C)CCCCCCCCC(=O)N[C@H]1C[C@@H](O)[C@@H](O)NC(=O)[C@@H]2[C@@H](O)CCN2C(=O)[C@H]([C@H](O)CC#N)NC(=O)[C@H]([C@H](O)[C@@H](O)c2ccc(O)cc2)NC(=O)[C@@H]2C[C@@H](O)CN2C(=O)[C@H]([C@@H](C)O)NC1=O (stereo partly drawn) (X1-[Orn(4R-OH,5R-OH)]T[Hyp][hTyr(3S-OH,4S-OH)][X9][Pro(3S-OH)]; lactam 1-C) | 100 nM | 2 µg/mL (≈ 1.91 µM) |  | 2 µg/mL (≈ 1.91 µM)

Source: ChEMBL document CHEMBL1128045, “Antifungal lipopeptides: Structure-activity relationships of 3-hydroxyglutamine-modified pneumocandin B0 derivatives” (Bioorg Med Chem Lett, 1995)
